Measured values reported in patent US12509454B2, “Thiadiazolyl derivatives” (IDEAYA Biosciences, Inc., priority 2019, dated 2025).

Molecular target: Pol theta (1-899) (Homo sapiens (Human), UniProt O75417)
Assay: Pol theta ATPase activity, NADH oxidation-coupled enzymatic assay
Format: biochemical
Conditions: Pol theta (1-899) 10 nM, ATP, dT50 ssDNA, absorbance 340 nm, 10-point dilution series; read-out: ATPase NADH coupling:Standard Screening:hPolQ IC50
Method: The ability of the compounds of Formula (I) to inhibit ATPase activity of Pol theta (1-899) was determined using the assay described below.
Pol Theta ATPase activity was determined by measuring the rate of ATP turn over in a NADH oxidation-coupled enzymatic assay. 10-point dilution series of compounds were used in a 384 well format for the inhibition assays. Pol theta (1-899) (10 nM) in assay buffer (20 mM Tris HCl (pH 7.80), 80 mM KCl, 10 mM MgCl2, 1 mM DTT, 0.01% BSA, 0.01% Tween, 5% glycerol) was transferred to the test wells (20 μL), except the low control wells (20 μL of assay buffer was added to the low control wells). The plate was then incubated at room temperature for 15 min. An equal volume (20 μL) of 100 μM ATP, 300 nM dT50 (single-stranded DNA (ssDNA) containing 50 thymine bases), 300 μM NADH, 6 mM PEP, 10 U/mL lactate dehydrogenase and 20 U/mL pyruvate kinase in assay buffer was added to all the test wells. The plate was then centrifuged at 1000 rpm for 1 min. The reaction was monitored for 30 min by measuring absorbance (λ=340 nm) in a Tecan Spark multimode plate reader every minute. The high control (DMSO with enzyme) with low absorbance intensity represents no inhibition of ATPase reaction while the low control (DMSO with buffer) with high absorbance intensity represents full inhibition of ATPase activity. Slope of the reaction progress curves were used to calculate the rate of ATP hydrolysis. The rates were used to determine the percent inhibition using a four-parameter inhibition model to generate IC50, Hill slope and max inhibition.

Chain of Pol theta (1-899) (O75417 1-899): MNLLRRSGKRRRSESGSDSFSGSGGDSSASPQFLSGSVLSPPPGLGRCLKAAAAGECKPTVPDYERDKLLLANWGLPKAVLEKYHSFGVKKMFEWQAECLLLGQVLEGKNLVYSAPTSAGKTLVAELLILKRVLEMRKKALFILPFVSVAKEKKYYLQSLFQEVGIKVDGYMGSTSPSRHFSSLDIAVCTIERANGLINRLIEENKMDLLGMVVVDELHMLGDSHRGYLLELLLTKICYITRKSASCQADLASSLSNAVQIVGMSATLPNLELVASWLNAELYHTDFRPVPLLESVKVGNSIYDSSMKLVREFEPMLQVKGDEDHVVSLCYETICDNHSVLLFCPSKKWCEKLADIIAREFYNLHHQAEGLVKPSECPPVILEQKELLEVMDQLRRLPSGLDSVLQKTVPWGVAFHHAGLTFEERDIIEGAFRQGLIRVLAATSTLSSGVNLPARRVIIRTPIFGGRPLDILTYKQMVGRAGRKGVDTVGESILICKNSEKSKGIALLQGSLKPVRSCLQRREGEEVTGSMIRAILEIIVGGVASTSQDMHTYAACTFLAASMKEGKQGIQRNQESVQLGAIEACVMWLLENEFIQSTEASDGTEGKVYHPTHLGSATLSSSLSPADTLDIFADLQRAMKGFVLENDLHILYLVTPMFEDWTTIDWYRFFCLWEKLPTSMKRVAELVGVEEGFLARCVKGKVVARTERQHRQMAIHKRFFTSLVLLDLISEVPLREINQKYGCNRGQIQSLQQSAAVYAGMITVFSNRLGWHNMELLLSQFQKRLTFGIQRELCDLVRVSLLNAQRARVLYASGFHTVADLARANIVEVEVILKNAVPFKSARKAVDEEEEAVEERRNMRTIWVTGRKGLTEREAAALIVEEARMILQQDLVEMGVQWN

| Compound | IC50 [µM] |
| --- | --- |
| O=C(Nc1nnc(OCc2ccc(Cl)cc2)s1)c1cnc(-c2ncc[nH]2)cc1N1CCOCC1 [Example 98, N-(5-((4-chlorobenzyl)oxy)-1,3,4-thiadiazol-2-yl)-6-(1H-imidazol-2-yl)-4-morpholinonicotinamide] | 0.5 to 1 |
| O=C(Nc1nnc(OCc2ccc(Cl)cc2)s1)c1cccnc1C1CCOCC1 [Example 54, N-[5-[(4-chlorophenyl)methoxy]-1,3,4-thiadiazol-2-yl]-2-(oxan-4-yl)pyridine-3-carboxamide] | 0.5 to 1 |
| COc1cc(COc2nnc(NC(=O)c3cccnc3N3CCOCC3)s2)ccc1Cl [Example 34, N-(5-((4-chloro-3-methoxybenzyl)oxy)-1,3,4-thiadiazol-2-yl)-2-morpholinonicotinamide] | 1 to 10 |
| O=C(Nc1nnc(OCc2ccc(Cl)cc2)s1)c1cccnc1-c1cc[nH]c(=O)c1 [Example 74, N-(5-((4-chlorobenzyl)oxy)-1,3,4-thiadiazol-2-yl)-2′-hydroxy-[2,4′-bipyridine]-3-carboxamide or its tautomer N-(5-((4-chlorobenzyl)oxy)-1,3,4-thiadiazol-2-yl)-2′-oxo-1′,2′-dihydro-[2,4′-bipyridine]-3-carboxamide] | 0.5 to 1 |
| O=C(Nc1nnc(OCc2ccc(Cl)cn2)s1)c1cccnc1N1CCOCC1 [Example 3] | 1 to 10 |
| O=C(Nc1nnc(OCc2ccc(Cl)cn2)s1)c1cccnc1-c1ccccc1Cl [Example 51, 2-(2-chlorophenyl)-N-[5-[(5-chloropyridin-2-yl)methoxy]-1,3,4-thiadiazol-2-yl]pyridine-3-carboxamide] | 1 to 10 |
| O=C(Nc1nnc(OCc2ccc(Cl)cn2)s1)c1cccnc1N1CCS(=O)(=O)CC1 [Example 37, N-(5-((5-chloropyridin-2-yl)methoxy)-1,3,4-thiadiazol-2-yl)-2-(1,1-dioxidothiomorpholino)nicotinamide] | 1 to 10 |
| COc1ccncc1-c1cnccc1C(=O)Nc1nnc(OCc2ccc(Cl)cc2)s1 [Example 133, N-(5-((4-chlorobenzyl)oxy)-1,3,4-thiadiazol-2-yl)-4′-methoxy-[3,3′-bipyridine]-4-carboxamide] | 0.5 to 1 |
| COc1ccccc1-c1cnc(F)cc1C(=O)Nc1nnc(OCc2ccc(Cl)cc2)s1 [Example 148, N-(5-((4-chlorobenzyl)oxy)-1,3,4-thiadiazol-2-yl)-2-fluoro-5-(2-methoxyphenyl)isonicotinamide] | ≤ 0.2 |
| COc1ccccc1-c1cnccc1C(=O)Nc1nnc(OCc2cccc3[nH]ncc23)s1 [Example 181, N-[5-(1H-indazol-4-ylmethoxy)-1,3,4-thiadiazol-2-yl]-3-(2-methoxyphenyl)pyridine-4-carboxamide] | ≤ 0.2 |
| COc1ccccc1-c1cc(CN)ncc1C(=O)Nc1nnc(OCc2ccc(Cl)cn2)s1 [Example 204, 6-(aminomethyl)-N-[5-[(5-chloropyridin-2-yl)methoxy]-1,3,4-thiadiazol-2-yl]-4-(2-methoxyphenyl)pyridine-3-carboxamide] | 1 to 10 |
| C[C@@H]1COC[C@@H](C)N1c1cnccc1C(=O)Nc1nnc(OCc2ccc(Cl)cc2)s1 [Example 144, N-(5-((4-chlorobenzyl)oxy)-1,3,4-thiadiazol-2-yl)-3-((3R,5R)-3,5-dimethylmorpholino)isonicotinamide] | ≤ 0.2 |
| CS(=O)(=O)N1CCN(c2ncccc2C(=O)Nc2nnc(OCc3ccc(Cl)cn3)s2)CC1 [Example 23, N-(5-((5-chloropyridin-2-yl)methoxy)-1,3,4-thiadiazol-2-yl)-2-(4-(methylsulfonyl)piperazin-1-yl)nicotinamide] | 1 to 10 |
| COc1ccccc1-c1cn2ccnc2cc1C(=O)Nc1nnc(OCc2ccc(Cl)cc2)s1 [Example 161, N-(5-((4-chlorobenzyl)oxy)-1,3,4-thiadiazol-2-yl)-6-(2-methoxyphenyl)imidazo[1,2-a]pyridine-7-carboxamide] | ≤ 0.2 |

Other lines, results leading:

| IC50 [µM] | Compound |
| --- | --- |
| ≤ 0.2 | COc1cccc(F)c1-c1cc(CO)ncc1C(=O)Nc1nnc(OCc2ccc(Cl)cn2)s1 [Example 206, N-[5-[(5-chloropyridin-2-yl)methoxy]-1,3,4-thiadiazol-2-yl]-4-(2-fluoro-6-methoxyphenyl)-6-(hydroxymethyl)pyridine-3-carboxamide] |
| ≤ 0.2 | COc1ccccc1-c1cc2cncn2cc1C(=O)Nc1nnc(OCc2ccc(Cl)cn2)s1 [Example 224, N-[5-[(5-chloropyridin-2-yl)methoxy]-1,3,4-thiadiazol-2-yl]-7-(2-methoxyphenyl)imidazo[1,5-a]pyridine-6-carboxamide] |
| ≤ 0.2 | COc1ccccc1-c1cc(C#N)ncc1C(=O)Nc1nnc(OCc2ccc(Cl)cc2)s1 [Example 92, N-(5-((4-chlorobenzyl)oxy)-1,3,4-thiadiazol-2-yl)-6-cyano-4-(2-methoxyphenyl)nicotinamide] |
| ≤ 0.2 | COc1ccccc1-c1cc(C(=O)O)ncc1C(=O)Nc1nnc(OCc2ccc(Br)cc2)s1 [Example 152, 5-([5-[(4-bromophenyl)methoxy]-1,3,4-thiadiazol-2-yl]carbamoyl)-4-(2-methoxyphenyl)pyridine-2-carboxylic acid] |
| ≤ 0.2 | O=C(Nc1nnc(OCc2ccc(Cl)cc2)s1)c1ccncc1-c1cccc2c1OCCN2 [Example 136, N-[5-[(4-chlorophenyl)methoxy]-1,3,4-thiadiazol-2-yl]-3-(3,4-dihydro-2H-1,4-benzoxazin-8-yl)pyridine-4-carboxamide] |
| ≤ 0.2 | O=C(Nc1nnc(OCc2ccc(Cl)cc2)s1)c1cnccc1-c1ccccc1C(F)(F)F [Example 132, N-(5-((4-chlorobenzyl)oxy)-1,3,4-thiadiazol-2-yl)-4-(2-(trifluoromethyl)phenyl)nicotinamide] |
| ≤ 0.2 | COc1ccc(C#N)cc1-c1cc(C)ncc1C(=O)Nc1nnc(OCc2ccc(Cl)cc2)s1 [Example 116, N-[5-[(4-chlorophenyl)methoxy]-1,3,4-thiadiazol-2-yl]-4-(5-cyano-2-methoxyphenyl)-6-methylpyridine-3-carboxamide] |
| ≤ 0.2 | N#Cc1ccccc1-c1cnccc1C(=O)Nc1nnc(OCc2ccc(Cl)cc2)s1 [Example 126, N-(5-((4-chlorobenzyl)oxy)-1,3,4-thiadiazol-2-yl)-3-(2-cyanophenyl)isonicotinamide] |
| ≤ 0.2 | COc1ccccc1-c1cncnc1C(=O)Nc1nnc(OCc2ccc(Cl)cn2)s1 [Example 209, N-(5-((5-chloropyridin-2-yl)methoxy)-1,3,4-thiadiazol-2-yl)-5-(2-methoxyphenyl)pyrimidine-4-carboxamide] |
| ≤ 0.2 | O=C(Nc1nnc(OCc2ccc(Cl)cc2)s1)c1ccncc1-c1cccc2[nH]ncc12 [Example 119, N-(5-((4-chlorobenzyl)oxy)-1,3,4-thiadiazol-2-yl)-3-(1H-indazol-4-yl)isonicotinamide] |
| ≤ 0.2 | COc1cccc(Cl)c1-c1cnccc1C(=O)Nc1nnc(OCc2ccc(Cl)cc2)s1 [Example 125, 3-(2-chloro-6-methoxyphenyl)-N-(5-((4-chlorobenzyl)oxy)-1,3,4-thiadiazol-2-yl)isonicotinamide] |
| ≤ 0.2 | COc1cc(C#N)ccc1-c1cnccc1C(=O)Nc1nnc(OCc2ccc(Cl)cc2)s1 [Example 127, N-(5-((4-chlorobenzyl)oxy)-1,3,4-thiadiazol-2-yl)-3-(4-cyano-2-methoxyphenyl)isonicotinamide] |
| ≤ 0.2 | COc1ccccc1-c1cnccc1C(=O)Nc1nnc(OCc2cccc(Cl)c2)s1 [Example 157, N-(5-((3-chlorobenzyl)oxy)-1,3,4-thiadiazol-2-yl)-3-(2-methoxyphenyl)isonicotinamide] |
| ≤ 0.2 | C[C@H]1COC[C@H](C)N1c1cnccc1C(=O)Nc1nnc(OCc2ccc(Cl)cn2)s1 [Example 187, N-(5-((5-chloropyridin-2-yl)methoxy)-1,3,4-thiadiazol-2-yl)-3-((3S,5S)-3,5-dimethylmorpholino)isonicotinamide] |
| ≤ 0.2 | O=C(Nc1nnc(OCc2ccc(Cl)cc2)s1)c1ccncc1-c1ccccc1OC1COC1 [Example 134, N-[5-[(4-chlorophenyl)methoxy]-1,3,4-thiadiazol-2-yl]-3-[2-(oxetan-3-yloxy)phenyl]pyridine-4-carboxamide] |
| ≤ 0.2 | Cc1nn(C)cc1-c1cnccc1C(=O)Nc1nnc(OCc2ccc(Cl)cc2)s1 [Example 169, N-[5-[(4-chlorophenyl)methoxy]-1,3,4-thiadiazol-2-yl]-3-(1,3-dimethylpyrazol-4-yl)pyridine-4-carboxamide] |
| ≤ 0.2 | COc1ccccc1-c1cc(CCO)ncc1C(=O)Nc1nnc(OCc2ccc(Cl)cc2)s1 [Example 166, N-(5-((4-chlorobenzyl)oxy)-1,3,4-thiadiazol-2-yl)-6-(2-hydroxyethyl)-4-(2-methoxyphenyl)nicotinamide] |
| ≤ 0.2 | O=C(Nc1nnc(OCc2ccc(Cl)cc2)s1)c1ccncc1-c1ccccc1CCO [Example 171, N-(5-((4-chlorobenzyl)oxy)-1,3,4-thiadiazol-2-yl)-3-(2-(2-hydroxyethyl)phenyl)isonicotinamide] |
